Measured values published in patent US20140336182A1, “Aurora Kinase Modulators and Method of Use” (Amgen Inc., priority 2013, published 2014).

Each compound was assayed on HeLa cells (assay: HeLa cell 24 hr ploidy assay (DNA content)). Settings: Homo sapiens, HeLa, 4N ploidy, average, read-out: 24h_4NPloidy EC50_IP (uM Avg).
Assay type: cell-based
Experimental: HeLa cell 24 hr ploidy assay protocol
The purpose of this assay is to evaluate the ability of selected individual compounds to induce Deoxyribonucleic acid (DNA) content (ploidy) in cells through failed cell division. Cell cycle analysis is a rapid and efficient way to evaluate the status of DNA content (ploidy) of a given cell. HeLa cells (1×10^4 HeLa cells/well) in 100 ul of media (MEM+10% FBS) were plated in 96-well plates (Packard View) and cultured for 24 hrs at 37° C. maintained in a 5% CO2 atmosphere. […] The compounds were serially diluted in DMSO (0.25% final concentration). The cells were fixed (3.7% Formaldehyde and 1% glutaraldehyde) and permeabilized (1×PBS with 1% BSA and 0.2% Triton X-100) in preparation for nuclear staining. The well plates were stained for 45 minutes at RT in the dark using Hoechest 33342 nuclear stain at 0.5 ug.ml (Stock of 10 mg/ml, Invitrogen, CA, Cat #H3570). The nuclear stain was removed by aspiration and the cells were washed with wash buffer. A Cellomics Array Scan Vti plate reader was used to acquire the DNA ploidy data of the cells using Cell Cycle bioapplication. Numbers for each of “valid cell count/well”, “% of 4N cells” and “% of >4Ncells” were calculated with the assistance of an Activity Base 5.1ca software and dose curves were generated using an XLFit software. With XLFit, final EC50 IP and EC50 transit values, as well as the Max and Min, were calculated for each curve.

Row | EC50 [µM] | SMILES
1 | 0.028 | COc1cnc2c(Oc3ccc(Nc4nnc(-c5ccc6c(c5)OCCN6C)c5ccccc45)cc3)ccnc2c1 [compound 157]
2 | 0.39 | COc1cnc2c(Oc3ccc(Nc4nnc(-c5cccc(CO)n5)c5ccccc45)cc3)ccnc2c1 [compound 114]
3 | 0.031 | NC(=O)c1cc2nccc(Oc3ccc(Nc4nnc(-c5ccccc5)c5ccccc45)cc3F)c2s1 [compound 78]
4 | 0.007 | COc1cnc2c(Oc3ccc(Nc4nnc(-c5ccc6occc6c5)c5ccccc45)cc3)ccnc2c1 [compound 159]
5 | > 1.2 | COc1cnc2c(Oc3ccc(Nc4nnc(-c5ccc(OC(F)(F)F)cc5)c5ccccc45)cc3)ccnc2c1 [compound 163]
6 | 0.077 | COc1cc2ncnc(Oc3ccc(Nc4nnc(-c5cc(C)ccn5)c5ccccc45)cc3)c2cc1OC [compound 123]
7 | 0.02 | N#Cc1ccc2c(Oc3ccc(Nc4nnc(-c5ccc(C(F)(F)F)cc5)c5ccccc45)cc3)ccnc2c1 [compound 147, 4-((4-((4-(4-(trifluoromethyl)phenyl)-1-phthalazinyl)amino)phenyl)oxy)-7-quinolinecarbonitrile]
8 | > 1.2 | COc1cnc2c(Oc3ccc(Cc4nnc(-c5ccc(C)cc5)c5ccccc45)cc3)ccnc2c1 [compound 126, 3-(methyloxy)-8-((4-((4-(4-methylphenyl)-1-phthalazinyl)methyl)phenyl)oxy)-1,5-naphthyridine]
9 | 0.42 | CCc1cc(-c2ccccc2)nnc1Nc1ccc(Oc2ccnc3cc(C#N)ccc23)cc1 [compound 149]

Same assay, conditions: Homo sapiens, HeLa, HeLa cells, 4N ploidy, average, read-out: 24h_4NPloidy EC50_IP (uM Avg)

Row | EC50 [µM] | SMILES
10 | 0.026 | COc1cnc2c(Sc3ccc(Nc4nnc(N5CCC(F)CC5)c5ccccc45)cc3)ccnc2c1 [compound 557]
11 | 0.017 | Cc1csc(-c2nnc(Nc3ccc(Oc4ccnc5cccnc45)cc3)c3cc(F)c(F)cc23)c1 [compound 510]
12 | 0.006 | COc1ccc2c(Cc3ccc(Nc4nnc(-c5ccc(Cl)cc5)c5ccccc45)cc3)ccnc2c1 [compound 328]
13 | 0.008 | COc1cc(OC)c2c(Oc3ccc(Nc4nnc(-c5cc(C)cs5)c5ccccc45)cc3)ccnc2c1 [compound 441]
14 | 0.032 | Cc1csc(-c2nnc(Nc3ccc(Sc4ccnc5cc(C(=O)N6CCOCC6)sc45)cc3)c3ccccc23)c1 [compound 312]
15 | ≥ 1.2 | COc1ccc2c(Oc3ccc(Nc4nnc(-c5ccc(C(F)(F)F)cc5)c5ccccc45)cc3)c(F)cnc2c1 [Example 39, N-(4-(3-fluoro-7-methoxyvquinolin-4-yloxy)phenyl)-4-(4-(trifluoromethyl)phenyl) phthalazin-1-amine]
16 | 0.12 | CCc1cc(N2CC[C@H]3CCCC[C@@H]3C2)nnc1Nc1ccc(Oc2ccnc3cc(OC)cnc23)cc1 [compound 320]
17 | < 0.0023 | COc1cnc2c(Sc3ccc(Nc4nnc(N5CCN6CCC[C@H]6C5)c5ccccc45)cc3)ccnc2c1 [compound 563]
18 | 0.281 | COc1cnc2c(Oc3ccc(Nc4nnc(C5CC5)c5ccccc45)cc3)ccnc2c1 [compound 543]
19 | < 0.0023 | COCCn1ccc2nccc(Sc3ccc(Nc4nnc(-c5cc(C)cs5)c5ccccc45)cc3)c21 [compound 470]
20 | 0.018 | COc1ccc2c(Sc3ccc(Nc4nnc(-c5ccc(Cl)cc5)c5ccccc45)cc3)ccnc2c1 [compound 334]
21 | 0.007 | c1ccc(-c2nnc(Nc3ccc(Oc4ccnc5cc(N6CCOCC6)ccc45)cc3)c3ccccc23)cc1 [Example 42, N-(4-(7-Morpholinoquinolin-4-yloxy)phenyl)-4-phenylphthalazin-1-amine]
22 | 0.026 | COCCCNc1nnc(Nc2ccc(Sc3ccnc4cc(OC)cnc34)cc2)c2ccccc12 [compound 535]
23 | 0.031 | Clc1ccc(-c2nnc(Nc3ccc(Oc4ccnc5ccsc45)cc3)c3ccccc23)cc1 [compound 250, 4-(4-chlorophenyl)-N-(4-(thieno[3,2-b]pyridin-7-yloxy)phenyl)-1-phthalazinamine]
24 | 0.058 | COc1cnc2c(Oc3ccc(Nc4nnc(-c5ccc(Cl)nc5)c5ccccc45)cc3)ccnc2c1 [compound 235, 4-(6-chloro-3-pyridinyl)-N-(4-((7-(methyloxy)-1,5-naphthyridin-4-yl)oxy)phenyl)-1-phthalazinamine]
25 | 0.014 | COc1cnc2c(Sc3ccc(Nc4nnc(-c5ccc6occc6c5)c5ccccc45)cc3)ccnc2c1 [compound 501]
26 | 0.013 | Clc1ccc(-c2nnc(Nc3ccc(Sc4ccnc5[nH]ncc45)cc3)c3ccccc23)cc1 [compound 359]
27 | 0.004 | COc1cc2nccc(Oc3ccc(Nc4nnc(-c5ccccc5)c5ccccc45)cc3)c2cc1C(N)=O [compound 225]
28 | 0.024 | c1ccc2c(-c3ccc4c(c3)OCO4)nnc(Nc3ccc(Oc4ccnc5ccncc45)cc3)c2c1 [compound 424]
29 | 0.399 | COc1cnc2c(Oc3ccc(Nc4nnc(-c5ccc(N6CCCCC6)cc5)c5ccccc45)cc3)ccnc2c1 [compound 198]
30 | 0.005 | COc1cnc2c(Sc3ccc(Nc4nnc(N5CCN6CCCC[C@@H]6C5)c5ccccc45)cc3)ccnc2c1 [compound 580]
31 | 0.064 | COc1cnc2c(Sc3ccc(Nc4nnc(N5CCCC(C)(C)C5)c5ccccc45)cc3)ccnc2c1 [compound 555]
32 | 0.06 | COc1cc2c(Oc3ccc(Nc4nnc(-c5ccccc5)c5ccccc45)cc3)ccnc2cc1OCc1ccccc1 [compound 326]
33 | 0.037 | Cc1cc2nccc(Sc3ccc(Nc4nnc(-c5ccc(Cl)cc5)c5ccccc45)cc3)c2o1 [compound 491]

Row | EC50 [µM] | SMILES
34 | 0.014 | Cc1csc(-c2nnc(Nc3ccc(Sc4ccnc5ccoc45)cc3)c3ccccc23)c1 [compound 468]
35 | 0.063 | COc1cnc2c(Sc3ccc(Nc4nnc(C#N)c5ccccc45)cc3)ccnc2c1 [Example 404, 4-(4-(7-Methoxy-1,5-naphthyridin-4-ylthio)phenylamino)phthalazine-1-carbonitrile]
36 | 0.011 | c1ccc(-c2nnc(Nc3ccc(Sc4ccnc5ccccc45)cc3)c3ccccc23)cc1 [compound 310]
37 | 0.038 | COc1cnc2c(Sc3ccc(Nc4nnc(C5CC5)c5ccccc45)cc3)ccnc2c1 [compound 541]
38 | 0.017 | COCCOCCOc1ccc2nccc(Sc3ccc(Nc4nnc(-c5ccc(Cl)cc5)c5ccccc45)cc3)c2n1 [compound 475]
39 | 0.078 | FC(F)(F)Oc1ccc2c(Oc3ccc(Nc4nnc(-c5ccc(Cl)cc5)c5ccccc45)cc3)ccnc2c1 [compound 498]
40 | 0.22 | CNC(=O)c1cc(Oc2ccc(Nc3nnc(-c4ccc(Cl)cc4)c4ccccc34)cc2)ccn1 [compound 361]
41 | 0.01 | COc1cccc(-c2nnc(Nc3ccc(Oc4ccnc5cc(-c6cncn6C)sc45)cc3)c3ccccc23)n1 [compound 240]
42 | 0.013 | Cn1cncc1-c1cc2nccc(Oc3ccc(Nc4nnc(-c5ccc(Cl)cc5)c5ccccc45)cn3)c2s1 [compound 267]
43 | 0.006 | COc1cnc2c(Oc3ccc(Nc4nnc(-c5ccc6c(c5)OCO6)c5ccccc45)cc3)ccnc2c1 [compound 306, 4-(1,3-benzodioxol-5-yl)-N-(4-((7-(methyloxy)-1,5-naphthyridin-4-yl)oxy)phenyl)-1-phthalazinamine]
44 | 0.033 | COc1cnc2c(Oc3ccc(Nc4nnc(-c5cccc(C)c5)c5ccccc45)cc3)ccnc2c1 [compound 317]
45 | 0.009 | Cc1ccc(-c2nnc(Nc3ccc(Sc4ccnc5ccoc45)cc3)c3ccccc23)cc1N [compound 479]
46 | 0.108 | COc1ccc2nccc(Oc3ccc(Nc4nnc(-c5ccc(C)cn5)c5ccccc45)cc3)c2c1 [compound 554]
47 | 0.087 | COc1cnc2c(Oc3ccc(Nc4nnc(N5CCN6CCCCC[C@@H]6C5)c5ccccc45)cc3)ccnc2c1 [compound 604]
48 | 0.028 | COc1cnc2c(Oc3ccc(Nc4nnc(N5CC[C@H]6CCCC[C@@H]6C5)c5ccccc45)cc3)ccnc2c1 [compound 586]
49 | 0.006 | COc1cnc2c(Sc3ccc(Nc4nnc(-c5ccc6nonc6c5)c5ccccc45)cc3)ccnc2c1 [compound 504]
50 | 0.057 | c1ccc(-c2nnc(Nc3ccc(Sc4ccnc5[nH]ccc45)cc3)c3ccccc23)cc1 [compound 329]
51 | 0.035 | Cc1nc(-c2nnc(Nc3ccc(Oc4ccnc5cc(C#N)ccc45)cc3)c3ccccc23)sc1C [compound 277]
52 | 0.03 | COc1cnc2c(Oc3ccc(Nc4nnc(-c5ccc(SC)cc5)c5ccccc45)cc3)ccnc2c1 [compound 237]
53 | 0.006 | COc1cnc2c(Sc3ccc(Nc4nnc(N5CCC(C(F)(F)F)CC5)c5ccccc45)cc3)ccnc2c1 [compound 523]
54 | > 1.2 | Brc1cnc2c(Oc3ccc(Nc4nnc(-c5ccccc5)c5ccccc45)cc3)ncnc2c1 [compound 599]
55 | 0.032 | Clc1ccc(-c2nnc(Nc3ccc(Sc4ccnc5[nH]cnc45)cc3)c3ccccc23)cc1 [compound 363]
56 | 0.006 | COc1cnc2c(Oc3ccc(Nc4nnc(N5CC[C@H]6CCCC[C@H]6C5)c5ccccc45)cc3)ccnc2c1 [compound 173]

Same assay, conditions: Homo sapiens, HeLa, HeLa cells, average, read-out: 24h_4NPloidy EC50_IP (uM Avg)

Row | EC50 [µM] | SMILES
57 | 0.014 | Clc1ccc(-c2nnc(Nc3ccc(Oc4ccnc5cc(OCc6ccccc6)cnc45)cc3)c3ccccc23)cc1 [compound 610]
58 | 0.15 | COc1ccc2c(C(=O)c3ccc(Nc4nnc(-c5ccc(Cl)cc5)c5ccccc45)cc3)ccnc2c1 [compound 615]
